Source: PMC12090182, “Repurposing of the RIPK1-Selective Benzo[1,4]oxazepin-4-one Scaffold for the Development of a Type III LIMK1/2 Inhibitor” (ACS Chemical Biology, 2025)

Assays:
Experiment in all cases: DSF selectivity screening
Type in all cases: binding
Settings in all cases: 10 μM compound
[1] = biological target: DAPK3A (Homo sapiens, UniProt O43293)
How it was run: (§1)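 Read-out is the inflection point of the unfolding transition, fitted with the Boltzmann equation from SYPRO Orange fluorescence (465/590 nm). Samples held 2 μM recombinant kinase domain and 10 μM test compound in HEPES pH 7.5 buffer with 500 mM NaCl, heated at 3 °C per minute.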

[2] = biological target: MAP2K6A (Homo sapiens, UniProt P52564)
How it was run: as §1

[3] = biological target: NEK2 (Homo sapiens, UniProt P51955)
How it was run: as §1

[4] = biological target: FESA (Homo sapiens, UniProt P07332)
How it was run: as §1

[5] = biological target: SLKA (Homo sapiens, UniProt Q9H2G2)
How it was run: as §1

[6] = test system: RPS6KA1A
How it was run: as §1

[7] = biological target: PIM1A (Homo sapiens, UniProt P11309)
How it was run: as §1

[8] = biological target: STK6A (Homo sapiens, UniProt O14965)
How it was run: as §1

[9] = biological target: HIPK2 (Homo sapiens, UniProt Q9H2X6)
How it was run: as §1

[10] = test system: CDC42BPAA
How it was run: as §1

[11] = biological target: ABL1A (Homo sapiens, UniProt P00519)
How it was run: as §1

[12] = biological target: STK4A (Homo sapiens, UniProt Q13043)
How it was run: as §1

[13] = biological target: MAPK13A (Homo sapiens, UniProt O15264)
How it was run: as §1

[14] = biological target: TIF1A (Homo sapiens, UniProt O15164)
How it was run: as §1

[15] = biological target: BMPR2A (Homo sapiens, UniProt Q13873)
How it was run: as §1

[16] = biological target: MAP2K4A (Homo sapiens, UniProt P45985)
How it was run: as §1

[17] = biological target: PKMYT1A (Homo sapiens, UniProt Q99640)
How it was run: as §1

[18] = biological target: CAMK2DA (Homo sapiens, UniProt Q13557)
How it was run: as §1

[19] = biological target: SRPK1A (Homo sapiens, UniProt Q96SB4)
How it was run: as §1

[20] = biological target: MERTKA (Homo sapiens, UniProt Q12866)
How it was run: as §1

[21] = biological target: FLT1A (Homo sapiens, UniProt P17948)
How it was run: as §1

[22] = biological target: MAPK1A (Homo sapiens, UniProt P28482)
How it was run: as §1

[23] = biological target: MAPK10A (Homo sapiens, UniProt P53779)
How it was run: as §1

[24] = biological target: CAMKK2B (Homo sapiens, UniProt Q96RR4)
How it was run: as §1

[25] = biological target: WNK1A (Homo sapiens, UniProt Q9H4A3)
How it was run: as §1

[26] = biological target: EPHB1A (Homo sapiens, UniProt P54762)
How it was run: as §1

[27] = biological target: PIM3A (Homo sapiens, UniProt Q86V86)
How it was run: as §1

[28] = biological target: DCAMKL1A (Homo sapiens, UniProt O15075)
How it was run: as §1

[29] = biological target: TOPKA (Homo sapiens, UniProt Q96KB5)
How it was run: as §1

[30] = biological target: MAPK14A (Homo sapiens, UniProt Q16539)
How it was run: as §1

[31] = biological target: MAPK8B (Homo sapiens, UniProt P45983)
How it was run: as §1

[32] = biological target: FGFR2A (Homo sapiens, UniProt P21802)
How it was run: as §1

[33] = biological target: MARK4A (Homo sapiens, UniProt Q96L34)
How it was run: as §1

[34] = biological target: FGFR1B (Homo sapiens, UniProt P11362)
How it was run: as §1

[35] = biological target: NEK1A (Homo sapiens, UniProt Q96PY6)
How it was run: as §1

[36] = biological target: AKT3A (Homo sapiens, UniProt Q9Y243)
How it was run: as §1

[37] = biological target: ULK1A (Homo sapiens, UniProt O75385)
How it was run: as §1

Sequence of MAPK8B (P45983 1-364): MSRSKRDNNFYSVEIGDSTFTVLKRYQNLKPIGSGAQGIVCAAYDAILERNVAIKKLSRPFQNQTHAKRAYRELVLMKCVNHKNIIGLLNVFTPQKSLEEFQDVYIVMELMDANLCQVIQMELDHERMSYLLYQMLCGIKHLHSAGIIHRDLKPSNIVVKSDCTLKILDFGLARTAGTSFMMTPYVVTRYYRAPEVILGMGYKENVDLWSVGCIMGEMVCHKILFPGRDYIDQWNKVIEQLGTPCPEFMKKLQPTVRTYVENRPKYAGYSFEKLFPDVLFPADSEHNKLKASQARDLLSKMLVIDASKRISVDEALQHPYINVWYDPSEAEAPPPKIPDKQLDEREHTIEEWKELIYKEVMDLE
Sequence of FLT1A (P17948 801-1158): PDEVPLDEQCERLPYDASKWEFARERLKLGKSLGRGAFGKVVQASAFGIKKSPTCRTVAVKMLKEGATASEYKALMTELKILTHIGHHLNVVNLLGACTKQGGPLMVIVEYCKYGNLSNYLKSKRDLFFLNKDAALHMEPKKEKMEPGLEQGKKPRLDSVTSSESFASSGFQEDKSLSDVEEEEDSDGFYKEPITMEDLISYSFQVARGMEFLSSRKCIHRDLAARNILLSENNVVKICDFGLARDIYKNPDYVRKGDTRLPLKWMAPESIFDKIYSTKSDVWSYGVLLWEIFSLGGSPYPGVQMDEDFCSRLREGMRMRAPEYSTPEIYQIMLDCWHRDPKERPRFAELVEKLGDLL
Sequence of DAPK3A (O43293 9-289): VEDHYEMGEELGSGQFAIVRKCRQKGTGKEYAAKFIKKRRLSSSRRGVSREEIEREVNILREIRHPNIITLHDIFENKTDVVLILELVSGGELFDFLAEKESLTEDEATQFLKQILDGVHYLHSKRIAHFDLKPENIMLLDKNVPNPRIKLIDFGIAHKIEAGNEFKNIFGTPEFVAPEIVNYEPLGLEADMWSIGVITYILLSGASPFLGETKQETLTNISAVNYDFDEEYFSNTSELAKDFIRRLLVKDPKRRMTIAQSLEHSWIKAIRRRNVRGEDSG
Sequence of SLKA (Q9H2G2 19-320): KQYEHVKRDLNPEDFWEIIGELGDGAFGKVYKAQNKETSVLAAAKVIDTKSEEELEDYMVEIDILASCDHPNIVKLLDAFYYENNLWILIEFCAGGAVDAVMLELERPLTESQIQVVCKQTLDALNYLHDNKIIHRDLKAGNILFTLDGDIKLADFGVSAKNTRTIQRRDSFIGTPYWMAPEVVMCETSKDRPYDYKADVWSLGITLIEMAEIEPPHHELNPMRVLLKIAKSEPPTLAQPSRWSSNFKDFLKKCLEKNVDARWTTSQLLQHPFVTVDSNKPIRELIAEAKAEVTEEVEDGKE
Sequence of ULK1A (O75385 1-283): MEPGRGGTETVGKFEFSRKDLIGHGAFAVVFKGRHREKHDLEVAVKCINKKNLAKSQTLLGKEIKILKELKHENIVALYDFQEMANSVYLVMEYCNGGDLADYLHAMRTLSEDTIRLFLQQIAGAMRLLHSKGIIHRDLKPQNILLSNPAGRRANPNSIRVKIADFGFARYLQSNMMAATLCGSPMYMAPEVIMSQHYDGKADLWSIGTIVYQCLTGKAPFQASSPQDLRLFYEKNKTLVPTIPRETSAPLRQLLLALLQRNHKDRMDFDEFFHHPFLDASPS
Sequence of SRPK1A (Q96SB4 whole entry): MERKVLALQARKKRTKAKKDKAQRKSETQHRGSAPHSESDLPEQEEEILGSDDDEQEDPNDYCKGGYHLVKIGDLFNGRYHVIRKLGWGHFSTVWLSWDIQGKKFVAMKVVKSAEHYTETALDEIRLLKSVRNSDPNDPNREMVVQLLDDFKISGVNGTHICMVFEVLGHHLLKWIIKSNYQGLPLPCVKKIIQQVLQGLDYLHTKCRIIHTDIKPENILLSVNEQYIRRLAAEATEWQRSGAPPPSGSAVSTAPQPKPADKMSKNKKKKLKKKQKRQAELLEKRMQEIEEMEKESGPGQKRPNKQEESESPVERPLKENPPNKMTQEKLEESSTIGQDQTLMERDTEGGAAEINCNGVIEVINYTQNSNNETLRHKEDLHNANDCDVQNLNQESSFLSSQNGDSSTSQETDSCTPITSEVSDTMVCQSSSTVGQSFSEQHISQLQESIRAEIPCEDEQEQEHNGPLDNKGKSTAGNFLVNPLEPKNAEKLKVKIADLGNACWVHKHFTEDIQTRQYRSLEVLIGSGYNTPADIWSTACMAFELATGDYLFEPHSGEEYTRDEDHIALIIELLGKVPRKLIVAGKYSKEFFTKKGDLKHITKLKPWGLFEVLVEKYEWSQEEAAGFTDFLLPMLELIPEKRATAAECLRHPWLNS
Sequence of BMPR2A (Q13873 189-517): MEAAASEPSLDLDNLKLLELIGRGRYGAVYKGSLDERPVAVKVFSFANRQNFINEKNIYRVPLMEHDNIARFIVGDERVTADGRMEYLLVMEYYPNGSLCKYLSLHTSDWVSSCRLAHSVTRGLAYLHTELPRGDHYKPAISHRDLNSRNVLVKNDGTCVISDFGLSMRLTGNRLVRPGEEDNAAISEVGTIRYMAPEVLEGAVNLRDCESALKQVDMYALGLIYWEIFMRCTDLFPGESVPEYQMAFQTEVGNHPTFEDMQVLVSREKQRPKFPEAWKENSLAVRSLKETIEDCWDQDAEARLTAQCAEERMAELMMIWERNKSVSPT
Sequence of AKT3A (Q9Y243 148-479): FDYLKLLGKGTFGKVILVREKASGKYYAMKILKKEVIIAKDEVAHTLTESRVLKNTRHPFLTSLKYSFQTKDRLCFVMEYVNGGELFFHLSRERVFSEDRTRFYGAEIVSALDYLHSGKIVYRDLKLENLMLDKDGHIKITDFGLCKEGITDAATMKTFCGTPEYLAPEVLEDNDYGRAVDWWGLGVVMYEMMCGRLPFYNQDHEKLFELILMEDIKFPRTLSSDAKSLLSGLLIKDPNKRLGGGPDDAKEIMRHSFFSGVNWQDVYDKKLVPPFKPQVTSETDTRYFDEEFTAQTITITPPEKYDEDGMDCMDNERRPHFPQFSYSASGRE
Sequence of CAMK2DA (Q13557 11-309): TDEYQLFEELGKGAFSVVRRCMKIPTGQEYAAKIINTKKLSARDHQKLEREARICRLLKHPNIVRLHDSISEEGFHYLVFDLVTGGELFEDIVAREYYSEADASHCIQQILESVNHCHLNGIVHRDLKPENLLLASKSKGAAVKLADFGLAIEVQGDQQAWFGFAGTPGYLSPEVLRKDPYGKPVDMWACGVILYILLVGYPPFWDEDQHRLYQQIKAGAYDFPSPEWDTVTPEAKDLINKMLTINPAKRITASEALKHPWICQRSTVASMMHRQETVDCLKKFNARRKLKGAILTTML
Sequence of STK4A (Q13043 30-281): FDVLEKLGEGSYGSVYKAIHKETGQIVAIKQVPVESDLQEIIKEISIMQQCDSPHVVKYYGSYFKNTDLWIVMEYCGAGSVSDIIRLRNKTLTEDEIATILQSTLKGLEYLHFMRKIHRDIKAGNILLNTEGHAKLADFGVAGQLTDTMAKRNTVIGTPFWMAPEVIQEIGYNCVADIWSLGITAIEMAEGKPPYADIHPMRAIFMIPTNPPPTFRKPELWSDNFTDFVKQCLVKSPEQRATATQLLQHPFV
Sequence of PKMYT1A (Q99640 75-362): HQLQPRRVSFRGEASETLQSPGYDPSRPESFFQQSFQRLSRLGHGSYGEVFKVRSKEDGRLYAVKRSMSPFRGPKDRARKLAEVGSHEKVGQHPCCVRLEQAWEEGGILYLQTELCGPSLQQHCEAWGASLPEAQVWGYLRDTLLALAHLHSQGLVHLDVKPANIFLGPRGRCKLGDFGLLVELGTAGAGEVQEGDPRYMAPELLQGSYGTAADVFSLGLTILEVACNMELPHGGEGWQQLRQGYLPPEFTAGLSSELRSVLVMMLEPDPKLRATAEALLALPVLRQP
Sequence of FGFR1B (P11362 456-767): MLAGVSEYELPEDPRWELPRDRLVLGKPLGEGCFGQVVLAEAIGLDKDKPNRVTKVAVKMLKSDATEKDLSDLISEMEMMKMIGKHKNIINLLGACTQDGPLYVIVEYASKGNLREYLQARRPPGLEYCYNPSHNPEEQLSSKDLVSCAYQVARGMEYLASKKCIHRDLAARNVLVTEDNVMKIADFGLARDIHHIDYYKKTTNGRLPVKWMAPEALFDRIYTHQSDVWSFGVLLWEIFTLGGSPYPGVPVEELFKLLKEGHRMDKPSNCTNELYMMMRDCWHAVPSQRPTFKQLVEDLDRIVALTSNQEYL
Sequence of MAPK13A (O15264 whole entry): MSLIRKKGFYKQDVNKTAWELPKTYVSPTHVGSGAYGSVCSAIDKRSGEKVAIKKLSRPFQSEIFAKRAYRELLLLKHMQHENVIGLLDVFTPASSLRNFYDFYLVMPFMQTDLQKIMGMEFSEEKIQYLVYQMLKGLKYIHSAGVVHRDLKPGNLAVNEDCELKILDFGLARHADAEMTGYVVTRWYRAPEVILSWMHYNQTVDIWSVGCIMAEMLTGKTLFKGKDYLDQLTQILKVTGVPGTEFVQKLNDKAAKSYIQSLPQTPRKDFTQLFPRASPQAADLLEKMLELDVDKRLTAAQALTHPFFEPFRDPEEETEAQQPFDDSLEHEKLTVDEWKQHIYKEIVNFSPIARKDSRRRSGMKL

CN1C(=O)[C@@H](N2CCc3c(nn(Cc4ccccc4)c3C(N)=O)C2=O)COc2cc(Cl)ccc21 [Compound 10, (S)-2-benzyl-6-(8-chloro-5-methyl-4-oxo-2,3,4,5-tetrahydrobenzo[b][1,4]oxazepin-3-yl)-7-oxo-4,5,6,7-tetrahydro-2H-pyrazolo[3,4-c]pyridine-3-carboxamide]
ΔTm at 10 µM [1]: -0.1 °C
ΔTm at 10 µM [2]: 0.1 °C
ΔTm at 10 µM [3]: 1.3 °C
ΔTm at 10 µM [4]: 0.1 °C
ΔTm at 10 µM [5]: -0.3 °C
ΔTM [6]: 0 K
ΔTm at 10 µM [7]: -0.9 °C
ΔTm at 10 µM [8]: 0.1 °C
ΔTm at 10 µM [9]: 0.3 °C
ΔTM [10]: -0.1 K
ΔTm at 10 µM [11]: -0.1 °C
ΔTm at 10 µM [12]: -0.5 °C
ΔTm at 10 µM [13]: -0.1 °C
ΔTm at 10 µM [14]: 0.2 °C
ΔTm at 10 µM [15]: 0.1 °C
ΔTm at 10 µM [16]: 0.1 °C
ΔTm at 10 µM [17]: -0.1 °C
ΔTm at 10 µM [18]: 0.4 °C
ΔTm at 10 µM [19]: 0 °C
ΔTm at 10 µM [20]: 0.1 °C
ΔTm at 10 µM [21]: 0.2 °C
ΔTm at 10 µM [22]: 0.1 °C
ΔTm at 10 µM [23]: 0 °C
ΔTm at 10 µM [24]: -0.2 °C
ΔTm at 10 µM [25]: 0.4 °C
ΔTm at 10 µM [26]: 0.1 °C
ΔTm at 10 µM [27]: 0.5 °C
ΔTm at 10 µM [28]: 0 °C
ΔTm at 10 µM [29]: -0.1 °C
ΔTm at 10 µM [30]: 0.1 °C
ΔTm at 10 µM [31]: 0.1 °C
ΔTm at 10 µM [32]: 0.1 °C
ΔTm at 10 µM [33]: -1.9 °C
ΔTm at 10 µM [34]: -0.1 °C
ΔTm at 10 µM [35]: 0.1 °C
ΔTm at 10 µM [36]: 0 °C
ΔTm at 10 µM [37]: 0.1 °C
